The results in this text go back to PMC4032193 (Journal of Medicinal Chemistry, 2014).

Read-outs that look alike come from different tables or passages of the source.

The subject of data set [1] is P. falciparum African D6 clone. In words: microbe, parasite or virus in culture. It is filed as cell-based. The conditions noted are these: Plasmodium falciparum, D6, read-out: D6 IC50.
For data set [2], the system named is P. falciparum Indochina W2 clone. In words: microbe, parasite or virus in culture. It is filed as cell-based. The settings on record: Plasmodium falciparum, W2, read-out: W2 IC50.
Data set [3] deals with P. falciparum multidrug resistant TM91C235 strain (Thailand). In words: microbe, parasite or virus in culture. Format: cell-based. The conditions noted are these: Plasmodium falciparum, read-out: TM91C235 IC50.
Data set [4] deals with HepG2 (hepatocellular carcinoma) cell line. The conditions noted are these: human.
A further data set in a line: in vitro. The settings on record: mouse, microsomes.
The conditions of data set [5]: human.
For data set [6] the following is noted: mouse.
Another data set concerns P. berghei. The conditions noted are these: mouse, in vivo.
For another data set, the target named is BoNT/A LC (Clostridium botulinum, UniProt P0DPI0). In words: biochemical.
Sequence of BoNT/A LC (P0DPI0 2-448 limits assumed): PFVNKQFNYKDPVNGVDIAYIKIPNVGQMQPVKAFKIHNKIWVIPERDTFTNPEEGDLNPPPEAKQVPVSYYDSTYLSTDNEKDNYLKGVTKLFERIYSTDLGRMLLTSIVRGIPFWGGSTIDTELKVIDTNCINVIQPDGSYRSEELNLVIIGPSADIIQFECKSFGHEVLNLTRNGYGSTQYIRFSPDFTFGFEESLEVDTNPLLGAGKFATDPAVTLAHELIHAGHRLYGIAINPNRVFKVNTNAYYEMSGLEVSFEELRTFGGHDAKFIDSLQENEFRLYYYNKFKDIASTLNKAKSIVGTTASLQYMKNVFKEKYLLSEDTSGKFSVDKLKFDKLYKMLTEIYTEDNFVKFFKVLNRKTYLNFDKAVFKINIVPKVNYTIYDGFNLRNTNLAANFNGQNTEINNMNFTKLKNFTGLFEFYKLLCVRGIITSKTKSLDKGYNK

On to `CCN(CC)CCCC(C)Nc1ccnc2cc(Cl)ccc12` (stereo not drawn) [Compound 9, chloroquine], for which the IC50 in data set [1] was found to be 12.3 nM.

`CC(=O)O[C@@H]1CC[C@@]2(C)[C@@H](C1)C[C@@H](OC(C)=O)[C@@H]1[C@@H]2C[C@H](OC(C)=O)[C@]2(C)[C@@H]([C@H](C)CCCNCCNc3ccnc4cc(Cl)ccc34)CC[C@@H]12` [Compound 12, N-(3α,7α,12α-Triacetoxy-5β-cholan-24-yl)-N′-(7′-chloroquinolin-4′-yl)ethane-1,2-diamine]: the IC50 in [1] was 16.9 nM; in [2], 11.4 nM; in data set [3] it was 27.7 nM.

Take `CC(=O)O[C@H]1C[C@H]2[C@@H]([C@H](OC(C)=O)C[C@@H]3C[C@H](O)CC[C@@]32C)[C@@H]2CC[C@H]([C@H](C)CCCNCCCNc3ccnc4cc(Cl)ccc34)[C@@]12C` [Compound 17]: in data set [4], the “SI HepG2/D6” value is on record as 84/115/90, the “SI HepG2/TM91C235” value is listed as 84/115/90 and the “SI HepG2/W2” value is 84/115/90. In the data set “in vitro”, this molecule came in with a half-life greater than 1 h.

Take `CC(=O)O[C@H]1C[C@H]2[C@@H]([C@H](OC(C)=O)C[C@@H]3C[C@H](NS(C)(=O)=O)CC[C@@]32C)[C@@H]2CC[C@H]([C@H](C)CCCN(C)CCCNc3ccnc4cc(Cl)ccc34)[C@@]12C` [Compound 43]: in [4], the “SI HepG2/D6” value is on record as 93/89/139, the “SI HepG2/TM91C235” value is recorded as 93/89/139 and the “SI HepG2/W2” value is reported as 93/89/139. Further, the half-life in the data set “in vitro” was greater than 1 h.

Turning to `CC(=O)O[C@H]1C[C@H]2[C@@H]([C@H](OC(C)=O)C[C@@H]3C[C@H](N(C)C)CC[C@@]32C)[C@@H]2CC[C@H]([C@H](C)CCCNCCNc3ccnc4cc(Cl)ccc34)[C@@]12C` [Compound 50, 24-N-[(7-Chloroquinoline-4-yl)amino]ethylamino-3α-N′,N′-dimethylamino-7α,12α-diacetoxy-5β-cholane], the “HLM stability (t1/2)” value in data set [5] is reported as 60/60 min. Besides, in [4], the “SI HepG2/D6” value is recorded as 714/333/435, the “SI HepG2/TM91C235” value is on record as 714/333/435 and the “SI HepG2/W2” value was 714/333/435. For the same molecule, the “MLM stability (t1/2)” value in data set [6] is reported as 60/60 min.

Turning to `CC(=O)O[C@H]1C[C@H]2[C@@H]([C@H](OC(C)=O)C[C@@H]3C[C@H](N)CC[C@@]32C)[C@@H]2CC[C@H]([C@H](C)CCCN(C)CCNc3ccnc4cc(Cl)ccc34)[C@@]12C` [Compound 54, 24-N-Methyl-N-[(7-chloroquinoline-4-yl)amino]ethylamino-3α-amino-7α,12α-diacetoxy-5β-cholane], the “HLM stability (t1/2)” value in [5] was 60/60 min. Moreover, in [4], the “SI HepG2/D6” value is recorded as 4993/3995/2327, the “SI HepG2/TM91C235” value is on record as 4993/3995/2327 and the “SI HepG2/W2” value is 4993/3995/2327. Moreover, the “MLM stability (t1/2)” value in data set [6] is reported as 60/60 min. The protection/cure of mice result in the data set on P. berghei is “failed to protect/cure mice”. Besides, in the data set with P. berghei (po), the “day postinfection on which mice died” value turned out to be 13 and the “signs of compound toxicity upon necropsy” value is given as “no signs of tissue damage caused by compound toxicity”.

As to `CC(=O)O[C@H]1C[C@H]2[C@@H]([C@H](OC(C)=O)C[C@@H]3C[C@H](N)CC[C@@]32C)[C@@H]2CC[C@H]([C@H](C)CCCN(C)CCCNc3ccnc4cc(Cl)ccc34)[C@@]12C` [Compound 55], in data set [4], the “SI HepG2/D6” value is 45/44/50, the “SI HepG2/TM91C235” value is listed as 45/44/50 and the “SI HepG2/W2” value is 45/44/50.

As for `CC(=O)O[C@H]1C[C@H]2[C@@H]([C@H](OC(C)=O)C[C@@H]3C[C@H](N(C)C)CC[C@@]32C)[C@@H]2CC[C@H]([C@H](C)CCCN(C)CCNc3ccnc4cc(Cl)ccc34)[C@@]12C` [Compound 56, 24-N-Methyl-N-[(7-chloroquinoline-4-yl)amino]ethylamino-3α-N′,N′-dimethylamino-7α,12α-diacetoxy-5β-cholane], in [4], the “SI HepG2/D6” value is 6824/3920/3176, the “SI HepG2/TM91C235” value was 6824/3920/3176 and the “SI HepG2/W2” value is recorded as 6824/3920/3176. Further, the half-life in the data set “in vitro” was greater than 1 h.

For `CC(=O)O[C@H]1C[C@H]2[C@@H]([C@H](OC(C)=O)C[C@@H]3C[C@H](N(C)C)CC[C@@]32C)[C@@H]2CC[C@H]([C@H](C)CCCN(C)CCCNc3ccnc4cc(Cl)ccc34)[C@@]12C` [Compound 57], in [5], the “HLM stability (t1/2)” value was 60/60 min. In addition, in data set [4], the “SI HepG2/D6” value is 93/35/71, the “SI HepG2/TM91C235” value is 93/35/71 and the “SI HepG2/W2” value is listed as 93/35/71. Besides, in [6], the “MLM stability (t1/2)” value was 60/60 min.

Take `CC(=O)O[C@H]1C[C@H]2[C@@H]([C@H](OC(C)=O)C[C@@H]3C[C@H](NC(=O)OC(C)(C)C)CC[C@@]32C)[C@@H]2CC[C@H]([C@H](C)CCCN(CCCNc3ccnc4cc(Cl)ccc34)CCC[C@@H](C)[C@H]3CC[C@H]4[C@@H]5[C@H](OC(C)=O)C[C@@H]6C[C@H](NC(=O)OC(C)(C)C)CC[C@]6(C)[C@H]5C[C@H](OC(C)=O)[C@]34C)[C@@]12C` [Compound 59, N,N-Di(3α-amino-tert-butylcarbamate-7α,12α-diacetoxy-5β-cholan-24-yl)-N′-(7′-chloroquinoline-4′-yl)-1,3-propanediamine]: in data set [4], the “SI HepG2/D6” value is recorded as 96/96/96, the “SI HepG2/TM91C235” value was 96/96/96 and the “SI HepG2/W2” value is given as 96/96/96. The molecule also yielded an inhibition at 20 µM against BoNT/A LC (at 20 μM) of 6%.

On to `CC(=O)O[C@H]1C[C@H]2[C@@H]([C@H](OC(C)=O)C[C@@H]3C[C@H](N)CC[C@@]32C)[C@@H]2CC[C@H]([C@H](C)CCCN(CCC[C@@H](C)[C@H]3CC[C@H]4[C@@H]5[C@H](OC(C)=O)C[C@@H]6C[C@H](N)CC[C@]6(C)[C@H]5C[C@H](OC(C)=O)[C@]34C)CCNc3ccnc4cc(Cl)ccc34)[C@@]12C` [Compound 60, N,N-Di(3α-amino-7α,12α-diacetoxy-5β-cholan-24-yl)-N′-(7′-chloroquinoline-4′-yl)-1,3-ethanediamine], for which, in [4], the “SI HepG2/D6” value is on record as 21/19/19, the “SI HepG2/TM91C235” value is given as 21/19/19 and the “SI HepG2/W2” value is listed as 21/19/19.

`CC(=O)O[C@H]1C[C@H]2[C@@H]([C@H](OC(C)=O)C[C@@H]3C[C@H](N)CC[C@@]32C)[C@@H]2CC[C@H]([C@H](C)CCCN(CCCNc3ccnc4cc(Cl)ccc34)CCC[C@@H](C)[C@H]3CC[C@H]4[C@@H]5[C@H](OC(C)=O)C[C@@H]6C[C@H](N)CC[C@]6(C)[C@H]5C[C@H](OC(C)=O)[C@]34C)[C@@]12C` [Compound 61]: in [4], the “SI HepG2/D6” value was 10/9/7, the “SI HepG2/TM91C235” value is listed as 10/9/7 and the “SI HepG2/W2” value is 10/9/7.

Turning to `N=C(N)c1ccc(Oc2ccc(-c3cc4ccc(C(=N)N)cc4[nH]3)cc2)cc1` [NSC 240898, reference compound], on BoNT/A LC, the inhibition at 20 µM is 73.3%.

Broadly, the IC50 is the concentration that inhibits the measured activity by half. What is called half-life is the time in which the quantity being followed falls by half. One may read the inhibition as the relative decrease from the control value, in per cent.
